Test results: patent publication US20230109839A1, “THERAPEUTIC AGENT FOR TAUOPATHIES” (SUMITOMO PHARMA CO., LTD., priority 2020, published 2023)
Read-outs that look alike come from different tables or passages of the source.

Molecular target: T1, human Nav1.1 (Homo sapiens, UniProt P35498)
T1 construct: host or cells: HEK293
Test: Amplification of Nav1.1-derived voltage-gated sodium current (Nav1.1 current), automated patch clamp (Test 1)
Assay type: cell-based
In short: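 Compound-induced change in ramp-evoked sodium current peak and AUC was expressed as 100×post/pre ratio minus 100. Recordings used automated patch clamp in voltage-clamp mode on a stable human Nav1.1 HEK293 line, including only cells above 500 pA. Compounds were delivered in extracellular fluid containing 1% DMSO.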

[1] = concentration for evaluation 1 μM, HEK293 stably expressing human Nav1.1
[2] = Concentration for evaluation 1 μM, HEK293 cell line stably expressing human Nav1.1
[3] = Concentration for evaluation 10 μM, HEK293 cell line stably expressing human Nav1.1
[4] = HEK293, concentration for evaluation 1 μM, HEK293 stably expressing human Nav1.1, read-out: Nav1.1 current amplification rate (%)
[5] = Concentration for evaluation 3 μM, HEK293 cell line stably expressing human Nav1.1

Row | SMILES | Nav1.1 current amplification rate (%) [2] | Nav1.1 current amplification rate (%) [3] | other results
1 | N#Cc1ncc(NC(=O)Cn2ncc3cnc(N4CCC5(CC5)C(F)(F)C4)nc32)cn1 [Example 827] | – | – | Nav1.1 current amplification rate (%) [1]: 29%
2 | Cc1nn(CC(=O)Nc2ccn3ncnc3c2)c2nc(N3CCC4(CCC4)C3)cnc12 [Example 738] | – | – | activation at 3 µM (HEK293, Concentration for evaluation 3 μM, HEK293 cell line stably expressing human Nav1.1, read-out: Nav1.1 current amplification rate (%)): 22%
3 | CC1CC=C(c2ccc(=O)n(CC(=O)N3CCc4c(N5CCOCC5)cccc43)n2)CC1 (stereo not shown) [Example 245] | 393% | – | –
4 | CC1CCN(c2ccc(=O)n(CC(=O)Nc3cc(Cl)c4ocnc4c3)n2)CC1 [Example 94] | – | 198% | –
5 | CC1CC=C(c2ccc(=O)n(CC(=O)N3CCC(c4ccccc4)CC3)n2)CC1 (stereo not shown) [Example 256] | – | 36% | –
6 | CC1CC=C(c2cnc3cnn(CC(=O)Nc4ccn5ncnc5c4)c3n2)CC1 (stereo not shown) [Example 895, 2-[6-(4-methylcyclohex-1-en-1-yl)-1H-pyrazolo[3,4-b]pyrazin-1-yl]-N-([1,2,4]triazolo[1,5-a]pyridin-7-yl)acetamide] | – | – | activation at 1 µM [4]: 244%
7 | CC1(C)CCCC(c2ccc(=O)n(CC(=O)Nc3ccc(C#N)cc3)n2)C1 (stereo not shown) [Example 46] | – | 85% | –
8 | Cc1ccc(-c2nn(CC(=O)Nc3ccn4ccnc4c3)c(=O)c(C)c2C)cc1 [Example 156] | – | 33% | –
9 | CC1CC=C(c2ccc(=O)n(CC(=O)N3CCN(c4cncc(OC(F)F)c4)CC3)n2)CC1 (stereo not shown) [Example 405] | – | – | Nav1.1 current amplification rate (%) [5]: 268%
10 | O=C(Cn1nc(C2=CCC3(CC2)CC3(F)F)ccc1=O)N1CCc2c(N3CCOCC3)cccc21 (stereo not shown) [Example 478] | – | – | Nav1.1 current amplification rate (%) [5]: 345%
11 | CC1CC=C(c2ccc(=O)n(CC(=O)Nc3ccc4oc(C(C)(C)O)nc4c3)n2)CC1 (stereo not shown) [Example 327] | – | – | Nav1.1 current amplification rate (%) [5]: 124%
12 | CC1CC=C(c2ccc(=O)n(CC(=O)Nc3ccn4cnnc4c3)n2)CC1 (stereo not shown) [Example 358] | 71% | – | –
13 | CN(CC1CC1)c1ncc2cnn(CC(=O)Nc3ccn4ncnc4c3)c2n1 [Example 800] | – | – | Nav1.1 current amplification rate (%) [1]: 55%
14 | Cc1noc2ccc(NC(=O)Cn3nc(C4=CCC(C)CC4)ccc3=O)cc12 (racemic) [Example 423] | – | 11% | –
15 | CC1CCN(c2ccc(=O)n(CC(=O)Nc3ccc(F)nc3)n2)CC1 [Example 58] | – | 26% | –
16 | CC1CCN(c2ccc(=O)n(CC(=O)Nc3ccc4c(c3)NC(=O)C4)n2)CC1 [Example 86] | – | 73% | –
17 | CC(C)CN(C)c1cnc2cnn(CC(=O)Nc3ccn4ncnc4c3)c2n1 [Example 573, 2-{6-[Methyl(2-methylpropyl)amino]-1H-pyrazolo[3,4-b]pyrazin-1-yl}-N-([1,2,4]triazolo[1,5-a]pyridin-7-yl) acetamide] | – | – | activation at 1 µM (HEK293, Concentration for evaluation 1 μM, HEK293 cell line stably expressing human Nav1.1, read-out: Nav1.1 current amplification rate (%)): 44%
18 | CC1CCN(c2ccc(=O)n(CC(=O)Nc3cncc(Cl)c3)n2)CC1 [Example 63] | – | 49% | –

Row | SMILES | Nav1.1 current amplification rate (%) [2] | Nav1.1 current amplification rate (%) [3] | other results
19 | CC1CC=C(c2ccc(=O)n(CC(=O)Nc3ccnc(-c4cnn(C)c4)c3)n2)CC1 (stereo not shown) [Example 379] | – | 147% | –
20 | CC1CCN(c2ccc(=O)n(CC(=O)Nc3ccc4sc(N(C)C)nc4c3)n2)CC1 [Example 92] | – | 88% | –
21 | CC1CC=C(c2ccc(=O)n(CC(=O)N3CCc4c(CNC5COC5)cccc43)n2)CC1 (stereo not shown) [Example 313] | 84% | – | –
22 | Cc1cc(NC(=O)Cn2ncc3cnc(N(C)C4CC4)nc32)cc2ncnn12 [Example 836] | – | – | activation at 1 µM [4]: 19%
23 | N#Cc1ccc(NC(=O)Cn2nc(N3CCC4(CC3)CC4)ccc2=O)cc1 [Example 17] | – | 212% | –
24 | N#Cc1ccc(NC(=O)Cn2nc(C3CCC(F)(F)CC3)ccc2=O)cc1 [Example 47] | – | 11% | –
25 | CC1CCN(c2ccc(=O)n(CC(=O)Nc3cccc(-c4nccs4)c3)n2)CC1 [Example 80] | – | 131% | –
26 | CC1CC=C(c2ccc(=O)n(CC(=O)N3CCN(c4cccnc4)CC3)n2)CC1 (stereo not shown) [Example 395] | – | 343% | –
27 | N#Cc1ccc(NC(=O)Cn2nc(N3CCCC(O)C3)ccc2=O)cc1 (stereo not shown) [Example 7] | – | 3% | –
28 | CC1CC=C(c2ccc(=O)n(CC(=O)NC3CCN(c4ccccc4)C3)n2)CC1 (stereo not shown) [Example 369] | – | – | Nav1.1 current amplification rate (%) (Concentration for evaluation 50 μM, HEK293 cell line stably expressing human Nav1.1): 10%
29 | CC1CC=C(c2ccc(=O)n(CC(=O)N3CC=C(c4cncc(F)c4)CC3)n2)CC1 (stereo not shown) [Example 397] | – | 273% | –
30 | CC1CCN(c2ccc(=O)n(CC(=O)Nc3ccnc(C#N)c3)n2)CC1 [Example 53] | – | 161% | –
31 | COc1cnc(C)c(N2CCN(C(=O)Cn3nc(C4=CCC(C)CC4)ccc3=O)CC2)c1 (stereo not shown) [Example 418] | – | – | Nav1.1 current amplification rate (%) [5]: 105%
32 | CC1CC=C(c2ccc(=O)n(CC(=O)Nc3ccc4cncnc4c3)n2)CC1 (stereo not shown) [Example 356] | 378% | – | –
33 | CN(c1ccc2cnn(CC(=O)Nc3ccc4ncncc4c3)c2n1)C1CCCC1 [Example 892] | – | – | activation at 1 µM [4]: 39%
34 | Cc1noc2cc(NC(=O)Cn3nc(N4CCC(C)CC4)ccc3=O)ccc12 [Example 84] | – | 315% | –
35 | CC1CCN(c2ccc(=O)n(CC(=O)Nc3ccc(C#N)nc3)n2)CC1 [Example 51] | – | 196% | –

Second part, led by results:

Row | Nav1.1 current amplification rate (%) [2] | Nav1.1 current amplification rate (%) [3] | SMILES | other results
36 | – | 235% | COc1cc(C2=CCC(C(F)(F)F)CC2)nn(CC(=O)N2CCc3c(N4CCOCC4)cccc32)c1=O (stereo not shown) [Example 474] | –
37 | 63% | – | CN(c1cnc2cnn(CC(=O)Nc3ccc4cnnn4c3)c2n1)C1CCCC1 [Example 679] | –
38 | – | 124% | COc1cc(C2=CCC(C(F)(F)F)CC2)nn(CC(=O)Nc2ccn3ccnc3c2)c1=O (stereo not shown) [Example 462] | –
39 | 112% | – | CN(c1cnc2cnn(CC(=O)Nc3cnc4cccnc4c3)c2n1)C1CC1 [Example 713] | –
40 | 27% | – | CN(c1ncc2cnn(CC(=O)Nc3ccn4ncnc4c3)c2n1)C1CC1 [Example 794] | –
41 | – | 365% | COc1cc(=O)n(CC(=O)Nc2ccc3ocnc3c2)nc1C1=CCC(C)(C)CC1 [Example 451] | –
42 | 255% | – | CN(CC1CCC1)c1cnc2cnn(CC(=O)Nc3ccn4ncnc4c3)c2n1 [Example 625] | –
43 | 25% | – | O=C(Cn1ncc2cnc(N3CCC4(CCC4)C3)nc21)Nc1ccn2ncnc2c1 [Example 765] | –
44 | – | 148% | COc1cc(=O)n(CC(=O)N2CCN(c3cncc(F)c3)CC2)nc1C1=CCC(C(F)(F)F)CC1 (stereo not shown) [Example 486] | –
45 | 448% | – | CN(c1cnc2cnn(CC(=O)N3CCc4c(-c5cnn(C)c5)cccc43)c2n1)C1CCC1 [Example 694] | –
46 | 34% | – | O=C(Cn1ncc2cnc(C3=CCCCC3)nc21)Nc1ccn2ncnc2c1 [Example 786] | –
47 | 100% | – | CN(CC1(C)CC1)c1cnc2cnn(CC(=O)Nc3ccn4ncnc4c3)c2n1 [Example 639] | –
48 | – | 186% | CC1(C)CC=C(c2ccc(=O)n(CC(=O)Nc3ccn4ccnc4c3)n2)C1 [Example 465] | –
49 | 34% | – | CN(c1cnc2cnn(CC(=O)Nc3ccc4ncnn4c3)c2n1)C1CC1 [Example 664] | –
50 | 361% | – | CC1CC=C(c2cnc3cnn(CC(=O)Nc4ccc5cncnc5c4)c3n2)CC1 (stereo not shown) [Example 641] | –
51 | 44% | – | O=C(Cn1ncc2cnc(-c3ccc(C(F)(F)F)s3)nc21)Nc1ccn2ncnc2c1 [Example 779] | –
52 | 13% | – | CN(CC1CC1)c1cnc2cnn(CC(=O)Nc3ccc4ncnn4c3)c2n1 [Example 663] | –
